Experimental data from US10143668B2, “Hydroxy-substituted amino and ammonium derivatives and their medical use” (GRI BIO, INC., priority 2011, dated 2018).
Values joined by “and” are separate entries in the source; they are usually repeats but may differ in a detail not shown here. Equal values may be shown once. Where a name gives a salt, the structure may show the parent alone. Read-outs that look alike come from different tables or passages of the source. Marks after values point to notes of the source that are not given here.

Key:
RBL-2H3 cells [1] = assay: Maximum tolerated concentration (cytotoxicity by lactate dehydrogenase release); format: cell-based, rat; conditions: for MTC (maximum tolerated concentration): highest concentration not causing cytotoxicity (LDH release); for SI (safety index): ratio between MTC and IC50
Description: The safety index (SI) of a test compound is the ratio between the maximum tolerated concentration and the IC50 and is used as a measure of the relative safety of the test compound.

RBL-2H3 cells [2] = assay: Inhibition of mast cell degranulation (β-hexosaminidase release); format: cell-based; conditions: Rattus norvegicus, RBL-2H3 cells sensitized with anti-DNP IgE, triggered with DNP-HSA
Description: Mast cells are key effector cells involved in allergic and inflammatory diseases, and the Rat Basophilic Leukemia clone 2H3 (RBL-2H3) cell line is a commonly used model of allergen dependent immune modulator release (degranulation) in mast cells. On their surface, they express the high affinity receptor for IgE (FcεRI) Upon binding of antigen-specific IgE to the receptor, cells become sensitized to the IgE specific antigen (allergen). When IgE-sensitized cells then encounter multivalent antigen, the antigen clusters IgE-FcεRI complexes and initiates a signal transduction cascade that leads to degranulation, that is, the release of inflammatory mediators, such as cytokines, eicosanoids, histamine and enzymes. The assay can be used as a screening method to identify immune-modulating compounds, in particular compounds useful in the medical management of allergic and inflammatory diseases and asthma. β-hexosaminidase was previously shown to be released with the same kinetics as histamine (Schwartz et al., J Immunology; 123:1445-1450 (1979)), thus offering a simple means to monitor degranulation. The RBL-2H3 cell line has been successfully used to identify compounds with anti-allergic activity (Choo et al. Planta Med., 69:518-522 (2003)).
Cell Culture: RBL-2H3 cells obtained from the German Collection of Microorganisms and Cell Cultures (ACC312) (Braunschweig, Germany) were maintained in 70% Minimum Essential Medium with Earle's Salts, 20% RPMI 1640 Medium, 10% FBS and 2 mM L-glutamine in 95% air/5% CO2 at 37° C. and routinely checked for mycoplasma contamination. Cells were passaged every 3-4 days; after washing cells once with 35 ml PBS cells were incubated 8 min with 5 ml 0.05% Trypsin-EDTA solution at 37° C. Cells were removed from the incubator, 15 ml culture medium was added and cells were resuspended by repeated pipetting.
Cell seeding: cells were harvested with Trypsin-EDTA as described and 50-100 μl cell suspension seeded into Costar CellBind 24 well cluster plates (no. 3337). Plates were kept for 30 min at RT under the sterile hood before being transferred to the incubator. Cells were used within one or two days after seeding.
For sensitization, cells for immediate use were sensitized 6-12 h after plating; cells to be used the following day were sensitized 26-38 h after plating. Culture plates were removed from the incubator and checked for cell growth and contamination. The medium was discarded and cells were sensitized with anti-DNP IgE (0.4 μg/ml) in 0.4 ml culture medium overnight. Following overnight sensitization, cells were washed with 0.8 ml pre-warmed TyB and 0.38 ml test compound or vehicle control (supplemented or not with 1% FBS) were added to duplicate wells. Samples were adjusted to contain 1% vehicle for test compounds dissolved in organic solvents. Cells were incubated for 1 h at 37° C. At the end of the incubation period, cells were routinely stimulated with 20 μl DNP-HSA (2 μg/ml; final concentration 0.1 μg/ml) diluted in TyB and cells were incubated for 15 min at 37° C. Alternatively, cells were stimulated with 20 μl 5 μM ionomycin (final concentration 0.25 μM) or 20 μl 5 μM thapsigargin (final concentration 0.25 μM), both in the absence or presence of 20 nM PMA (final concentration). […]
MUG substrate solution, 100 μl, were added to supernatant and lysate samples and plates were incubated 30 min at 37° C. […] Fluorescene was measured at 365 nm excitation and 440 nm emmission wavelengths. […]

[3] = tested on: allergic contact dermatitis response in mice; assay: Allergic contact dermatitis (TDI) model in mice, mouse ear swelling test; format: in vivo
Description: The anti-inflammatory and anti-allergic effects of compound 1a were assessed in a mouse model of allergic contact dermatitis, a response driven primarily by T helper type 2 (Th2) cells. […] In this model, an allergic dermatitis response is obtained by sensitizing mice to TDI and subsequently challenging them with antigen by topical administration onto the ears. A quantitative assessment of anti-inflammatory and anti-allergic effects of topically or orally administered test compounds is possible by measuring the resulting ear swelling.
Female BALB/c-mice were obtained from Charles River (Sulzfeld, Germany) at age 8 weeks. All animals were housed in groups of eight per cage at 22° C. with a 12 h light/dark-cycle. Water and a standard diet (Altromin, Lage/Lippe, Germany) were available ad libitum. All animals were acclimatized for one week before experimental procedures were commenced.
Experimental procedures for BALB/c mice housing, TDI sensitization and challenge, and measurement of ear thickness were performed as previously described (Baumer et al., J Pharm Pharmacol. 55:1107-1114 (2003)) with the following modifications. For active sensitization, 100 μL of 5% (w/v) TDI was administered to the shaved and stripped abdominal epidermis on day one, and for the next three consecutive days, 50 μL of 5% (w/v) TDI was applied. The allergic reaction was boosted 21 days later by application of 50 μL of 0.5% (w/v) TDI. For the examination of test compound effects, the left ears were used for the TDI challenge (20 μL of 0.5% in acetone) and ear thickness measured 3 h before and 24 h after challenge.
Administration time: to determine optimal time for administration treatment groups were treated orally by gavage with 100 mg/kg of compound 1a (suspended in 0.5% tylose, 10 mL/kg) 1, 4 or 16 h before topical TDI challenge. One group was treated with 100 mg/kg miltefosine orally, 16 h before challenge (based on available data for optimal administration time for miltefosine) and vehicle treated mice received tylose (10 mL/kg) orally, 4 h before challenge.
Comparison with dexamethasone: one group of mice was treated orally with compound 1a at 100 mg/kg suspended in 0.5% tylose, 4 h before topical TDI challenge. Vehicle treated mice received 0.5% tylose orally 4 h before challenge. As a positive control, dexamethasone was administered in saline solution at 1 mg/kg or 3 mg/kg, 2 h and 30 min before challenge and 1 h after challenge. The dose and dosing scheme for dexamethasone was based on previous experience showing a maximal effect in this model.
[…] The solution was applied, 2 h before topical TDI challenge by administration of 10 μl onto each of the inner and outer surfaces of the left ears. A vehicle group (n=5) was treated with propyleneglycol. As a positive control, diflorasone diacetate was administered at 0.01% (low dose) and 0.05% (high dose) in 20 μl acetone, 2 h before challenge. A basal control group was left untreated.
Mean and standard error of the mean (SEM) were calculated from individual ear edema values. Statistical evaluation was a one-way analysis of variance (ANOVA) (if the test for normal distribution was passed) or the Kruskal-Wallis one-way ANOVA on Ranks (if the normal distribution test failed). Both were followed by a post-hoc test (Dunnett's method or Dunn's test, respectively). A p<0.05 was considered to be significant.

[4] = tested on: collagen type II-induced arthritis (CIA) in mice; conditions: prophylactic, 0.3 mg/kg intraperitoneally once daily
DTH response in mice = format: in vivo; conditions: 24 h after challenge
Description: The anti-inflammatory and anti-allergic effects of compound 1a was assessed in a mouse model of skin delayed-type hypersensitivity (DTH) reactions and compared to a vehicle control and to the reference drug, dexamethasone. DTH reactions are antigen-specific cell-mediated immune responses, driven primarily by T helper type 1 (Th1) cells, similar to the tuberculin immunization response. The immune reaction induced by an ovalbumin challenge to animals previously sensitized with ovalbumin in Complete Freund's Adjuvant, is characterized by swelling (edema) at the site of challenge, e.g. the mouse ear. Dexamethasone, an anti-inflammatory steroid, reduces cell-mediated immune responses and was employed to validate the responsiveness of the assay to pharmacological treatment.
Female BALB/cJW mice were bred at the University of Lodz, Lodz, Poland and housed in groups of 8 in makrolon cages with a 12 h light-dark cycle. Mice were given free access to food (Agropol S. j., Motycz, Poland) and water.
Sensitization: The protein antigen, ovalbumin, was reconstituted in PBS at 4 mg/ml. An ovalbumin-CFA emulsion was prepared by mixing the protein solution with the CFA suspension at a ratio of 1:1, using two Luer-lock syringes. The emulsion was tested by putting a drop of emulsion onto PBS; if the emulsion remained as a tight droplet on the PBS, the emulsion was deemed ready. Mice were sensitized by subcutaneously injecting 25 μL of emulsion into each side of the tail (100 μg ovalbumin per mouse).
Challenge: On the sixth day after sensitization, DTH was elicited by challenging animals subcutaneously (gauge 30 needle, B. Braun Melsungen, Melsungen, Germany) in the left ears with 10 μL of a 1% suspension of heat-aggregated ovalbumin (HOVA) (100 μg ovalbumin per mouse). The right ears were administered subcutaneously with PBS and served to determine the individual differences in ear thicknesses. HOVA was prepared by heating a 5% solution of ovalbumin in saline for 1 h at 80° C. with occasional swirling. After cooling to room temperature and centrifugation (400 g, 10 min at 4° C.), the pellet was washed twice with saline, resuspended at 2% in PBS and aliquots stored at −30° C. Before injection, HOVA was diluted with an equal volume of PBS and sonicated. Ear thickness was measured with a precise spring-loaded caliper (Art. No. 7309, Mitutoyo, Kawasaki, Japan) before challenge, and 24 h after challenge.
Sensitization, challenge and ear thickness measurement were performed under anesthesia (ketamine 80 mg/kg plus xylazine 8 mg/kg, intraperitoneally).
The anti-inflammatory effects of compound 1a were compared to a vehicle control (0.5% methyl cellulose solution) and to the reference drug, dexamethasone. Test compound was given at 25 or 100 mg/kg orally by gavage (Art. No. 432093, Harvard Apparatus GmbH, March-Hugstetten, Germany) 16 h and 3 h before sensitization and then twice daily with the final dose given 3 h prior to ear challenge (a total of 14 administrations). Dexamethasone was given at 0.1 or 1 mg/kg orally by gavage 3 h before sensitization and once daily with the final dose given 3 h prior to antigen challenge (a total of 7 administrations). All administrations were given in a volume of 10 mL/kg.
To account for individual variability, the increase in right ear thickness, before and 24 h after administration of PBS, was subtracted from the HOVA-induced increase in left ear thickness. […]
Mean and standard deviation (SD) were calculated from individual ear edema values. […]

SMILES	MTC (maximum tolerated concentration) (RBL-2H3 cells [1]) [µM]	SI (safety index) (RBL-2H3 cells [1])	IC50 (RBL-2H3 cells [2]) [µM]	Inhibition of mouse ear swelling ([3]; comparison with dexamethasone, 1 mg/kg oral)	Inhibition of mouse ear swelling ([3]; comparison with dexamethasone, 1 mg/kg oral, listed as dexamethasone) [%]	Inhibition of mouse ear swelling ([3]; comparison with dexamethasone, 3 mg/kg oral)	Inhibition of mouse ear swelling ([3]; comparison with dexamethasone, 3 mg/kg oral, listed as dexamethasone) [%]	clinical signs of arthritis [4]	Inhibition of mouse ear swelling (DTH response in mice; 0.1 mg/kg orally once daily) [%]	Inhibition of mouse ear swelling (DTH response in mice; 1.0 mg/kg orally once daily) [%]	inhibitory efficacy relative to 1a at its optimal administration time of 4 h ([3]; 100 mg/kg oral, 16 h before challenge) [%]	Inhibition of mouse ear swelling ([3]; administration time study, 100 mg/kg oral, 16 h before TDI challenge)
CCCCCCCCCCCCCCN(C)CC(=O)N(C)C[C@H](O)[C@@H](O)[C@H](O)[C@H](O)CO [Compound 1b, N-(2-(Methyl(tetradecyl)amino)acetyl)-N-methyl-D-glucamine hydrotrifluoroacetate]	50	10.2	4.9									
CCCCCCCCCCCCN(C)CC(=O)N(C)C[C@H](O)[C@@H](O)[C@H](O)[C@H](O)CO [Compound 1c, N-(2-(Methyl(dodecyl)amino)acetyl)-N-methyl-D-glucamine hydrotrifluoroacetate]	100	8.1	12.3									
CCCCCCCCCCCCCC[N+](C)(C)CC(=O)N(C)CC(O)CO (stereo not drawn) [Compound 1d, N-(2-(Dimethyl(tetradecyl)ammonio)acetyl)-N-methyl-2,3-dihydroxypropylamine trifluoroacetate]	75	24.2	3.1									
C[C@@H]1C[C@H]2[C@@H]3CCC4=CC(=O)C=C[C@]4(C)[C@@]3(F)[C@@H](O)C[C@]2(C)[C@@]1(O)C(=O)CO [Dexamethasone, reference compound]				78.6*** %	78	87.1*** %	87	nearly completely suppressed	14	53		
CCCCCCCCCCCCCCCCOP(=O)([O-])OCC[N+](C)(C)C [Miltefosine, reference compound]	25	6.0	4.2								75	47% and 47.3^§ %
